Like-named read-outs stand apart in the source and are kept apart here.
Assays:
[1] = tested on: PfA-M1 and/or PfA-M17; test: Multiplex primary screen, fluorogenic substrate Leu-Mec; assay type: biochemical, Plasmodium falciparum; settings: 100 μM compound, multiplex assay
Method: A multiplex enzyme assay was developed to complete the primary screen of 400 compounds that were provided to us by MMV and SCYNEXIS. Combined PfMAP (15 nM PfA-M1; 80 nM PfA-M17 and 125 nM PfM18AAP) aminopeptidase activity in the presence of a single MMV compound (100 μM solubilized in 100% dimethyl sulfoxide, DMSO, final DMSO concentration in assay = 10%) was determined by simultaneous measurement of the release of the fluorogenic leaving group, -NHMec, from L-Leucine-7-amido-4-methylcoumarin-HCl (Leu-Mec) (Sigma) as well as the hydrolysis of p-nitroanilide from the chromogenic substrate, L-Glutamic acid p-nitroanilide (Glu-pNA) (Sigma). The fluorogenic substrate records the combined activity of PfA-M1 and PfA-M17 while the p-nitroanilide substrate is specific for PfM18AAP. Reactions were carried out in 96-well microtitre plates (200 μL total volume) in 50 mM Tris-HCl pH 8.0, 2 mM CoCl2 at 37°C. Following a 10 min incubation (multi-enzyme and single compound) at 37°C, reactions were initiated by addition of both fluorogenic and chromagenic substrates. Progress curves were monitored using a FLUOstar Omega multimode reader (BMG LabTech) for 1.5 h at 37°C. As activity references, individual enzyme and multiple enzyme 'no compound' controls and 'positive inhibitor' controls (with 10% DMSO) were included in each 96 well plate assay.

[2] = molecular target: T1, PfA-M1 (Plasmodium falciparum, UniProt O96935); test: Secondary screening against individual enzyme; assay type: biochemical; settings: 100 μM compound; for PfA-M1 activity retained in the presence of compound: n = 3, of total enzyme activity; for PfA-M1 activity, single dose secondary screen: n = 1; for reduction of PfA-M1 activity: n = 3
T1 construct: made in house; host or cells: Escherichia coli
T1 sequence (O96935 195-1085 limits assumed): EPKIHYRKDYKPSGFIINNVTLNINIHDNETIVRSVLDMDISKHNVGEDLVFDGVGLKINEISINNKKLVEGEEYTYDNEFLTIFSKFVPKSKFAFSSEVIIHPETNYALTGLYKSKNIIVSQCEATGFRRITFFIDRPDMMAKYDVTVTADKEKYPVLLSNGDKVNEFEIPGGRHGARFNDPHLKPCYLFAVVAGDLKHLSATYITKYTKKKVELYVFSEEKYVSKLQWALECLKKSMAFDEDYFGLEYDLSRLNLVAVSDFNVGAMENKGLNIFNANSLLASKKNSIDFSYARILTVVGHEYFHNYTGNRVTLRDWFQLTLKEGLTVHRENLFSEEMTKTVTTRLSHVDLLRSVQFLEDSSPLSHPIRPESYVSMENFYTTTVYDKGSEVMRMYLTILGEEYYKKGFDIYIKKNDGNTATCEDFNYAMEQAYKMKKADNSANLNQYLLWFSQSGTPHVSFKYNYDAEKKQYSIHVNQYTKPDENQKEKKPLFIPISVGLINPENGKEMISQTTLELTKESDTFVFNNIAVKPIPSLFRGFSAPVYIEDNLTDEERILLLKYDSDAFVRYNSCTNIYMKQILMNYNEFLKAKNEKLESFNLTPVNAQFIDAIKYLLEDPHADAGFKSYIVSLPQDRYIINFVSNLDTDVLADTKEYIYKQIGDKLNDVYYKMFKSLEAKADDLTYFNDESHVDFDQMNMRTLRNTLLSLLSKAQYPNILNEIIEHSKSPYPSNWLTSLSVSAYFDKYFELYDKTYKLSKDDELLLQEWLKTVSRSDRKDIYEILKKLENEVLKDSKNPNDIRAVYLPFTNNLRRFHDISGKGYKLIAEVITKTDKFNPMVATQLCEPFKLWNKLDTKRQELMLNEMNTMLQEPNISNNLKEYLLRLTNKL
Method: (§1) Aminopeptidase activity of each individual enzyme in the presence of a single MMV compound (100 μM) was determined using Leu-Mec for both PfA-M1 (15 nM) and PfA-M17 (80 nM) or Glu-pNA for PfM18AAP (125 nM). Reactions were carried out in 96-well microtitre plates (200 μl total volume) in 50 mM Tris-HCl pH 8.0, 2 mM CoCl2 at 37°C. Following a 10 min incubation (enzyme and compound) at 37°C, reactions were initiated by addition of enzyme specific substrate. Progress curves were monitored using a FLUOstar Omega multimode reader (BMG LabTech) for 1.5 h at 37°C. As activity references, individual enzyme 'no compound' controls and 'positive inhibitor' controls were included in each 96 well plate assay. We applied a cut-off of < 10% activity in the presence of 100 μM compound for selection to the next phase. Compounds that were selected to proceed were then used in further assays to obtain n = 3.

[3] = molecular target: T2, PfA-M17 (Plasmodium falciparum, UniProt Q8IL11); test: Secondary screening against individual enzyme; assay type: biochemical; settings: 100 μM compound; for PfA-M17 activity, single dose secondary screen: n = 1
T2 construct: made in house; host or cells: Escherichia coli
T2 sequence (Q8IL11 84-605 limits assumed): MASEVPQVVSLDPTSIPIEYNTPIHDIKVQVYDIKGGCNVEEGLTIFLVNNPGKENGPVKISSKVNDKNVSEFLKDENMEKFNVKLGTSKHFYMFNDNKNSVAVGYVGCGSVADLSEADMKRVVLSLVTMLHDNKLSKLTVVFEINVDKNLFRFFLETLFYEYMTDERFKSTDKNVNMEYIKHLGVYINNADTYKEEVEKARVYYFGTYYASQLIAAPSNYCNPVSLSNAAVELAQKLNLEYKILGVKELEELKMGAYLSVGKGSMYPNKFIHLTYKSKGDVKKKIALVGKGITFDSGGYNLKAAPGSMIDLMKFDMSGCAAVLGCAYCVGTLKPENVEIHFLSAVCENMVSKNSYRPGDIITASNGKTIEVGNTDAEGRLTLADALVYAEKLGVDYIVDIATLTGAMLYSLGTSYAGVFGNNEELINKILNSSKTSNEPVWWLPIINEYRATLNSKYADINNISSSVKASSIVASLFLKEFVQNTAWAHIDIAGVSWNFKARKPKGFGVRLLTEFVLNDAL
Method: as §1

[4] = molecular target: T1, PfA-M1; test: Determination of Ki values (Dixon plots, H-Leu-NHMec); assay type: biochemical
Method: (§2) MMV020750 was purchased from InterBioScreen (catalog number STOCK2S-51608) and MMV666023 was purchased from ChemBridge (catalog number 5566248). The MMV020750 derivatives 1, 2 and 3 were purchased from Ambinter (catalog numbers AMB425981, AMB2311364 and AMB8506251 respectively). 4-(4,5-Diphenyl-1H-imidazol-2-yl)benzoic acid (4) was purchased from TCI Chemicals, while 4-(4,5-diphenyl-1H-imidazol-2-yl)-N-hydroxybenzamide (5) was prepared from 4 as described (S1 Methods). Aminopeptidase activity of both PfA-M1 and PfA-M17 enzymes was determined by measuring the release of the fluorogenic leaving group, NHMec, from the fluorogenic peptide L-Leucine-7-amido-4-methylcoumarin hydrochloride (H-Leu-NHMec) (Sigma L2145). The assay protocol devised by Stack CM, et al, (J. Biol Chem, 2007) was modified and used, with the reactions were carried out at 37°C and monitored using a spectrofluorometer (BMG FLUOstar) with excitation at 355 nm and emission at 460 nm. Each enzyme was pre-incubated in 50 mM Tris pH 8.0, 2 mM CoCl2; 5% DMSO with each inhibitor for 10 min prior to the addition of substrate. Inhibitor concentration was assayed between 0 and 500 μM final for each compound, and repeated over a narrowed range if necessary. The fluorescence signal was monitored until a final steady state velocity, V, was obtained. The K i values were then evaluated using Dixon plots of 1/V versus inhibitor concentration while the substrate concentration was maintained lower than that of the Km of the enzyme.

[5] = molecular target: T2, PfA-M17; test: as above; assay type: biochemical; settings: for loss in inhibitory activity against PfA-M17: compared to parent MMV020750
Method: as §2
This was a particular problem with the PfA-M17 enzyme assays where we noted that at higher concentrations of 4, a decrease in fluorescence was observed. We hypothesise that this is a result of PfA-M17 binding to the compound and quenching the intrinsic fluorescence. […] We therefore chose to analyse a reduced concentration range for 4.

[6] = tested on: asexual blood stage of 3D7 Pf; settings: cited from earlier work
[7] = Dixon plot, read-out: Ki PfA-M1
[8] = ref Avery, read-out: EC50 (Avery)
[9] = ref ChEMBL, read-out: EC50 (ChEMBL)

Compound: COc1cc(-c2nc(-c3ccc(Sc4ccccc4)cc3)c(-c3ccccc3)[nH]2)cc(OC)c1O [MMV007273]
- Activity (PfA-M1 and/or PfA-M17) [1]: R
- PfA-M1 activity retained in the presence of compound [2]: ~75%

Compound: CC(C)C[C@H](NC(=O)[C@@H](O)[C@H](N)Cc1ccccc1)C(=O)O [Bestatin, reference compound]
- PfA-M1 activity, single dose secondary screen [2]: no neutral aminopeptidase activity is detectable
- PfA-M1 activity retained in the presence of compound [2]: no neutral aminopeptidase activity is detectable
- PfA-M17 activity, single dose secondary screen [3]: no neutral aminopeptidase activity is detectable
- PfA-M17 activity retained in the presence of compound ([3]; n = 3): no neutral aminopeptidase activity is detectable

Compound: Cc1cccc(N2C(=O)C3C(C2=O)C2(c4ccccc4)C(=O)C3(c3ccccc3)C(c3ccc4c(c3)OCO4)=C2c2ccc3c(c2)OCO3)c1 (stereo not drawn) [MMV007228]
- Activity (PfA-M1 and/or PfA-M17) [1]: R
- reduction of PfA-M1 activity [2]: 89%

Compound: O=C(O)c1ccc(-c2nc(-c3ccccc3)c(-c3ccccc3)[nH]2)cc1 [Compound 4, 4-(4,5-Diphenyl-1H-imidazol-2-yl)benzoic acid]
- Ki [4, 7]: 5.2 µM
- increase in potency against PfA-M1 ([4]; compared to MMV020750): > 10 fold
- Ki ([5]; Dixon plot): 20 to 40 µM
- Ki PfA-M17 ([5]; Dixon plot): micromolar range

Compound: COc1ccc(C(=O)NC(c2ccc(Cl)cc2Cl)c2cc(Cl)c3cccnc3c2O)cc1 (stereo not drawn) [MMV666054]
- Activity (PfA-M1 and/or PfA-M17) [1]: R
- reduction of PfA-M1 activity [2]: 87%

Compound: CN(CCO)c1ccc(-c2nc(-c3ccccc3)c(-c3ccccc3)[nH]2)cc1 [Compound 1]
- Ki [4, 7]: > 500 µM
- Ki ([5]; Dixon plot): > 500 µM

Compound: Cc1cccc(-n2ncc3c(O)nc(-n4nc(C)cc4NC(=O)c4cc5ccccc5o4)nc32)c1 [MMV403679]
- Activity (PfA-M1 and/or PfA-M17) [1]: R
- reduction of PfA-M1 activity [2]: 75%

Compound: COc1cc(-c2nc(-c3ccccc3)c(-c3ccccc3)[nH]2)ccc1OCC(N)=O [Compound 2]
- Ki [4, 7]: > 500 µM
- Ki ([5]; Dixon plot): > 500 µM

Compound: O=C(NO)c1ccc(-c2nc(-c3ccccc3)c(-c3ccccc3)[nH]2)cc1 [Compound 5, 4-(4,5-diphenyl-1H-imidazol-2-yl)-N-hydroxybenzamide]
- Ki PfA-M1 ([4]; Dixon plot): micromolar range
- Ki [4, 7]: 34 µM
- Ki ([5]; Dixon plot): 187 µM
- loss in inhibitory activity against PfA-M17 [5]: > 10 fold

Compound: O=C(Nc1ccc(-c2nc3ccccc3[nH]2)cc1)c1ccc(Cl)c(Cl)c1 [MMV665840]
- Activity (PfA-M1 and/or PfA-M17) [1]: R
- PfA-M1 activity, single dose secondary screen [2]: false positive
- PfA-M17 activity, single dose secondary screen [3]: false positive

Compound: c1ccc(Cn2c(/N=N/c3c(Nc4ccccc4)ccc4ccccc34)nc3ccccc32)cc1 [MMV666023]
- % Pf Inhibition @ 5 μM [6]: 96%
- EC50 [6, 8]: 0.04 µM
- EC50 [6, 9]: 2.7 µM
- mode of inhibition of PfA-M1 [4]: competitive
- Ki [4, 7]: 4.5 µM
- selectivity for PfA-M1 over M17 ([4]; from Ki values): 5 fold
- Activity (PfA-M1 and/or PfA-M17) [1]: R
- mode of inhibition of PfA-M17 [5]: competitive
- Ki ([5]; Dixon plot): 23 µM
- reduction of PfA-M1 activity [2]: 95%
- reduction of PfA-M17 activity ([3]; n = 3): 70%

Compound: COC(=O)c1ccc(-c2nc(-c3ccccc3)c(-c3ccccc3)[nH]2)cc1 [Compound 3]
- Ki PfA-M1 ([4]; Dixon plot): micromolar range
- Ki [4, 7]: 120 µM
- Ki ([5]; Dixon plot): 275 µM
- loss in inhibitory activity against PfA-M17 [5]: > 10 fold

Compound: COc1cc(-c2nc(-c3ccccc3)c(-c3ccccc3)[nH]2)cc(OC)c1O [MMV020750]
- % Pf Inhibition @ 5 μM [6]: 97%
- EC50 [6, 8]: 1.2 µM
- EC50 [6, 9]: 0.8 µM
- mode of inhibition of PfA-M1 [4]: competitive
- Ki ([4]; Dixon plot including the 500 uM values, read-out: Ki (with all values) PfA-M1): 225 µM
- Ki [4, 7]: 75 µM
- Activity (PfA-M1 and/or PfA-M17) [1]: R
- mode of inhibition of PfA-M17 [5]: competitive
- Ki ([5]; Dixon plot): 12 µM
- selectivity for PfA-M17 over M1 ([5]; from Ki values): 6 fold
- PfA-M1 activity retained in the presence of compound [2]: 75%
- reduction of PfA-M17 activity ([3]; n = 3): 95%
